Laboratory results taken from patent publication US12702694B2, “Methods for identification, assessment, prevention, and treatment of metabolic disorders using SLIT2” (Dana-Farber Cancer Institute, Inc., priority 2015, dated 2026).

What was measured:
Slit2 = Slit2 mRNA in adipose tissue after daily CL 316,243 injections; format: in vivo, Mus musculus; conditions: 3 days treatment, daily injections 1 mg/kg; did not reach statistical significance; FIG. 2F
Procedure: RNA was extracted from cultured cells or frozen tissue samples using TRIzol®, purified with QIAGEN RNeasy® minicolumns. Normalized RNA was reversed transcribed using a high-capacity cDNA reverse transcription lot (Applied Biosystems) and cDNA was analyzed by qRT-CPR. Relative mRNA levels were calculated using the comparative CT method and normalized to cyclophilin […]. All primers used are listed with their sequences in Table 3 as follows: […]

PKA signaling pathway [1] = test: Western blotting of PKA and related signaling in primary inguinal cells; format: cell-based, Mus musculus; conditions: H89 30 μM, 2 h, primary inguinal cells; FIG. 10C
Procedure: (§1) Inguinal and brown stromal-vascular fractions were obtained from 6 weeks old male or newborn mice (postnatal days 5-10) for white and brown fat cultures, respectively. Inguinal fat tissue was dissected and washed with PBS, minced and digested for 45 min at 37° C. in PBS containing 10 mM CaCl2), 2.4 U/ml dispase II (Roche) and 10 mg/ml collagenase D (Roche). Brown fat tissue was dissected, washed with PBS, minced and digested for 45 min at 37° C. in PBS containing 1.3 mM CaCl2, 123 mM NaCl, 5 mM KCl, 5.0 mM glucose, 100 mM HEPES, 4% BSA and 1.5 mg/ml collagenase B (Roche). Digested tissue was filtered through a 100-μm cell strainer and centrifuged at 600 g for 10 min. Pelleted inguinal stromal-vascular cells were grown to confluence and induced to differentiate by an adipogenic cocktail containing 0.02 μM insulin, 1 μM rosiglitazone, 5 μM dexamethasone, 0.5 μM isobuthylmethylxanthine. For differentiation of brown fat cells, 1 nM T3 and 125 μM indomethacin were also added to the adipogenic cocktail. Two days after induction, cells were maintained in adipocyte culture medium containing 0.02 μM insulin and 1 μM rosiglitazone. Where indicated, cells were treated with forskolin (10 μM), norepinephrine (100 nM) for 4 h or with recombinant proteins (1 μg/ml, R&D systems) for 24 h or for the indicated times. For adenoviral overexpression of Slit2-FL, Slit2-N, Slit2-C, LacZ or Cre, virus was added at day 2 of differentiation at a titer of 10^8 particles/well and cells were analyzed at day 6-7. Where indicated, cells were treated with the drugs Erlotinib (SelleckChem), Lapatinib (Santa Cruz), PD0325901 (Santa Cruz), Propranolol (SelleckChem), H89 dihydrochloride (Santa Cruz), SQ-22536 (Santa Cruz) for indicated time points and concentrations.
For Western blotting, homogenized tissues, whole cell lysates, or concentrated serum free conditioned medium were lysed in RIPA buffer containing protease inhibitor cocktail (Thermo Scientific) and phosphatase inhibitor cocktail (Thermo Scientific), separated by SDS-PAGE and transferred to Immobilon-P® membranes (Millipore). For Western blotting of plasma samples, 1 μl of plasma was prepared containing 2× sample buffer (Invitrogen) with reducing agent, boiled and analyzed using Western blot against V5, FLAG, or the indicated antibody. V5-antibody was from Life Technologies and anti-Flag M2-HRP (A8592) from Sigma Aldrich. Anti-Slit2 antibody used was from Abcam (Abcam ab134166). Phospho-PKA Substrate, phospho-PKC Substrate, phospho-ERK1/2, total ERK, phospho-AKT, total AKT, phospho-AMPK, total AMPK, phospho-ATGL, ATGL, phospho-EGFR and EGFR were from Cell Signaling. Protein array was from R&D Systems (Proteome Profiler Mouse Phospho-RTK Array Kit, ARY014). Silverstain (SilverQuest™ Silver Staining Kit, LC6070) was purchased from Thermo Fisher.

primary inguinal cells = test: Thermogenic gene expression in Slit2-C transduced primary inguinal cells co-treated with inhibitors; format: cell-based, Mus musculus
Procedure: as §1, with “Where indicated, cells were treated with the drugs Erlotinib (SelleckChem), Lapatinib (Santa Cruz), PD0325901 (Santa Cruz), Propranolol (SelleckChem), H89 dihydrochloride (Santa Cruz), SQ-22536 (Santa Cruz) for indicated time points and concentrations.” left out
RNA was extracted from cultured cells or frozen tissue samples using TRIzol®, purified with QIAGEN RNeasy® minicolumns. Normalized RNA was reversed transcribed using a high-capacity cDNA reverse transcription lot (Applied Biosystems) and cDNA was analyzed by qRT-CPR. Relative mRNA levels were calculated using the comparative CT method and normalized to cyclophilin […]. […]

PKA signaling pathway [2] = test: Western blotting of PKA and related signaling in primary inguinal cells; format: cell-based, Mus musculus; conditions: 20 nM NE; FIG. 10M
brown fat = conditions: humans; Cypess et al. (2015); cited from earlier work
[3] = tested on: cell surface of primary inguinal adipocytes; test: Cell surface binding by confocal laser scanning microscopy; parameters: species or system Mus musculus; conditions: purified FLAG-tagged protein, live adipocytes incubated at 4° C.; FIGS. 10L, 11E
Procedure: Live, primary differentiated adipocytes were incubated with recombinant Slit2-C FLAG-tagged protein for 1 h at 4° C. before fixation and staining with a fluorescent antibody for visualization of cell-surface bound proteins using a confocal laser scanning microscope.
Experiments were performed using a Nikon Ti w/A1R confocal inverted microscope equipped with a Nikon Plan Apo 60x/NA 1.4 oil immersion objective lens using excitation wavelengths of 405 and 561 nm. All experiments were performed under confocal imaging conditions (pinhole <1 airy unit) and images taken with the same laser settings. Image analysis was performed using the Nikon Elements acquisition software. Primary inguinal cells differentiated until day 5 was gently trypsinized and seeded onto poly-D-lysine-coated coverslips (Corning Biocoat 12 mm German Glass coverslips, #08-774-385) in a 6-well plate at a density of 10,000 cells per well in growth medium. On the next day, cell surface binding was performed by adding 1 μg/ml purified protein to cells or FLAG peptide in PBS in serum-containing medium for 1 h at 4° C. on ice. Cells were washed three times in PBS, fixed in 4% paraformaldehyde for 10 min at 4° C., and washed with PBS three times before blocking with 5% BSA in PBS for 1 h at room temperature. Cells treated with protein or FLAG peptide alone were stained using 1:200 anti-Flag M2-HRP overnight at 4° C. […]

C[C@H](Cc1ccc2c(c1)OC(C(=O)[O-])(C(=O)[O-])O2)NC[C@H](O)c1cccc(Cl)c1.[Na+].[Na+] [CL316, 243]
Slit2 gene expression in iWAT (Slit2): trend to an increase

Cl.Cl.O=S(=O)(NCCNC/C=C/c1ccc(Br)cc1)c1cccc2cnccc12 [H89, H89 dihydrochloride]
phosphorylation of PKA substrates (PKA signaling pathway [1]): significantly reduced | Dio2 mRNA in cells receiving Slit2-C (primary inguinal cells; H89 30 μM, FIG. 10D): down to baseline levels | reduction of Ucp1 mRNA in cells receiving Slit2-C (primary inguinal cells; H89 30 μM, FIG. 10D): 50%

NC[C@H](O)c1ccc(O)c(O)c1 [NE, norepinephrine]
time of treatment to full PKA phosphorylation response (PKA signaling pathway [2]): ≤ 5 min

CC(C)NCC(O)COc1cccc2ccccc12 (stereo not drawn) [Propranolol]
inhibition of Slit2-C induced thermogenesis (primary inguinal cells; propranolol 100 nM for 24 h, FIG. 10H): did not inhibit

Nc1nc(CC(=O)Nc2ccc(CCNC[C@H](O)c3ccccc3)cc2)cs1 [mirabegron]
brown fat activation (brown fat): apparent activation of brown fat | resting metabolic rate (brown fat): increased resting metabolic rate

B1: Pm20D1: another FLAG-tagged protein secreted from thermogenic adipocytes, control for specific staining (protein)
chain: STGPRSRENRGASRIPSQFSEEERVAIKEALKGAIQIPTVSFSHEESNTTALAEFGEYIRKAFPTVFHSSLVQHEVVAKYSHLFTIQGSDPSLQPYMLMAHIDVVPAPEEGWEVPPFSGLERNGFIYGRGALDNKNSVMAILHALELLLIRNYSPKRSFFIALGHDEEVSGEKGAQKISALLQARGVQLAFLVDEGSFILEGFIPNLEKPVAMISVTEKGALDLMLQVNMTPGHSSAPPKETSIGILSAAVSRLEQTPMPNMFGGGPLKKTMKLLANEFSFPINIVLRNLWLFHPIVSRIMERNPITNALVRTTTALTMFNAGIKVNVIPPLAQATINCRIHPSQTVHEVLELVKNTVADDRVQLHVLRSFEPLPISPSDDQAMGYQLLQETIRSVFPEVDIVVPGICIANTDTRHYANITNGMYRFNPLPLNPQDFSGVHGINEKVSVQNYQNQVKFIFEFIQNADTYKEPVPHLHEL
modifications: left off: small tags and cut ends
notes: another FLAG-tagged protein secreted from thermogenic adipocytes, control for specific staining
binding to the cell surface of adipocytes [3]: very limited binding
